Reference: patent US6681132B1, “Sodium magnetic reasonance imaging used in diagnosing tumors and assessing response to treatment” (The Trustees of Columbia University in the City of New York, priority 1999, dated 2004)
Entries after “also recorded” stand apart in the source; their conditions may differ.

How the values were obtained:
LNCaP tumor = assay: Na SQ and TQ line profiles of LNCaP tumor in vivo; details: 18 hours after i.v. injection of 1 mg in the femoral vein
Procedure: After preliminary studies, experiments were performed where proton, Na SQ and Na TQ images and line profiles were acquired at baseline and following bolus i.v. injection of chemotherapy. Imaging results for a LNCaP tumor in vivo, both at baseline and 18 hours after i.v. injection of 1 mg of taxotere in the femoral vein were examined.

LNCaP = assay: APO-BRDU endlabelling of DNA fragmentation, flow cytometry, LNCaP; format: cell-based, human
Procedure: At the end of the treatment period, cells are trypsinized, resuspended in media, resuspended in PBS, resuspended in iced cold methanol free formaldehyde (1% in PBS) for 15 min, resuspended in 70% ethanol and stored at −20° C. until all samples from a given experiment are ready to run (19, 23). Using a very powerful endlabelling technique (APO-BRDU, Phoenix Flow Systems, California) which gives a dynamic range of fluorescence intensities of up to 1000 fold comparing control cells to cells with advanced DNA fragmentation. Results have been confirmed using positive and negative controls provided by Phoenix Flow Systems, camptothecin treated PC3 cells, and a SNAP treated myocyte line.
Fixed cells are labeled following kit instructions (two washes with kit buffer, overnight endlabelling, two resuspensions in a rinse buffer, exposure to fluorescent antibody and treatment with propidium iodide and RNAase. Flow cytometry is performed on a Becton/Dickenson FACStar II. Individual fluorescence intensity values for 10,000 cells are obtained for each sample.
To specifically assay DNA fragmentation, a downstream response to apoptosis, uses of a terminal deoxynucleotidyl transferase labeling approach whereby fluorescent moieties are enzymatically attached to all DNA fragment ends. (FIG. 3a) The technique which was used, has a dynamic range of approximately ×1000 (FIG. 2). This allows for making very quantitative comparisons of DNA fragmentation on a cell to cell basis using flow cytometry, and to further examine the relative drug sensitivity profiles of the 3 cell lines.

[1] = tested on: carcinogen (MNU) induced breast tumor; assay: Weighted and non-weighted sodium MRI of carcinogen (MNU) induced breast tumor; format: in vivo, Sprague Dawley rat; details: rat
Procedure: In another example, a breast cancer tumor is imaged in an animal model. This image verifies that the imaging diagnostic described herein responds to the treatment of a different animal model when using a different tissue type as the neoplastic target. The tumor was induced by injecting a Sprague Dawley rat with carcinogen MNU. When the tumor was palpable and measured in excess of 5 mm in diameter, the rat was imaged using weighting and non-weighting pulse sequences. One rat was given a 3 mg intra venous injection of taxotere and a second was given a 6 mg injection of taxotere. […] Both the images became brighter, with the most dramatic proportional change occurring in the weighted image.

[2] = human single loading doses; cited from earlier work
mouse = details: in vivo; cited from earlier work
L cells = details: cited from earlier work

SMILES	change of SQ line profile (LNCaP tumor)	change of TQ line profiles (LNCaP tumor)	DNA fragmentation response (LNCaP; 24 hrs)	DNA fragmentation response (LNCaP; 44 hrs)	response of sodium MR images to treatment ([1]; 3 mg intra venous injection)	response of sodium MR images to treatment ([1]; 6 mg intravenous injection)	peak plasma level [2]	plasma level for the first 9.6 hrs [2]	plasma level for the first 25 hrs [2]	reported toxic mouse dose (mouse)	effect on total cellular monovalent cations (L cells; K+ loss exceeds Na+ gain)	effect on [Cai] (L cells; L cells)	effect on [Nai] (L cells; L cells)	effect on pHi (L cells; L cells)
CC(=O)O[C@@]12CO[C@@H]1C[C@H](O)[C@@]1(C)C(=O)[C@H](O)C3=C(C)[C@@H](OC(=O)[C@H](O)[C@@H](NC(=O)OC(C)(C)C)c4ccccc4)C[C@@](O)([C@@H](OC(=O)c4ccccc4)[C@H]21)C3(C)C [taxotere]	did not significantly vary	substantial increase	almost no response	significant DNA fragmentation	Only the latter showed a response	showed a response; also recorded: become brighter after the treatment	about 5 μMol/L	> 50 nmol/L	> 10 nmol/L	4.5 mg				
COc1cc([C@@H]2c3cc4c(cc3[C@@H](O[C@@H]3O[C@@H]5CO[C@@H](C)O[C@H]5[C@H](O)[C@H]3O)[C@H]3COC(=O)[C@H]23)OCO4)cc(OC)c1O [VP-16, etoposide]			almost no response	significant DNA fragmentation							net reduction	elevate	elevate	lowers
